Laboratory results reported in patent US9205121B2, “Echinacea formulation” (Integria Healthcare (Australia) PTY LTD, priority 2004, dated 2015).

Columns and labels:
Experiment in all cases: metabolism of 3 by recombinant human P450
Type in all cases: in vitro ADME
[1] = target: T1, P450 1A1 (Homo sapiens, UniProt P04798); details: recombinant P450 1A1, preliminary screen
T1 construct: made in house; host or cells: Escherichia coli, bacterial membrane fraction, bicistronic vector
T1 sequence (P04798 1-512): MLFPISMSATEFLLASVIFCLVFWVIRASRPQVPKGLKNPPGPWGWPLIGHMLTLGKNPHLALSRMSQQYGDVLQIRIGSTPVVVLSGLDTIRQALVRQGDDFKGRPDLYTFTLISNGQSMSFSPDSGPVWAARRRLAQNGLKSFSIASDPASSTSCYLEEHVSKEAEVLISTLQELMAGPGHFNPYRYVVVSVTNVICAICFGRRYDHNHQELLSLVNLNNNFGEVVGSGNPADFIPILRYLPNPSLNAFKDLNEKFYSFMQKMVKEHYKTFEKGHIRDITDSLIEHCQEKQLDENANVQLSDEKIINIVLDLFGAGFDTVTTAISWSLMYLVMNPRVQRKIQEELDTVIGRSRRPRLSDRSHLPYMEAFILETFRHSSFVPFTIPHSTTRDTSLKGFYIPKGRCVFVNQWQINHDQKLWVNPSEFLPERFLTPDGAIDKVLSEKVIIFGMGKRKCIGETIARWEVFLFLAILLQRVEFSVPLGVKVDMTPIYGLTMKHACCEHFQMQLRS
Description: (§1) Recombinant P450s were co-expressed with hNPR in Escherichia coli according to the general procedures outlined previously. Recombinant P450 preparations were obtained from bacteria transformed with bicistronic expression vectors for P450s 1A1, 1A2, 2D6, 2E1 and 3A4 [6]; 1B1 [10]; 2A6 [8]; P450 2B6 [11]; 2C9 (wild type; P450 2C9*1) and 2C19 [12]; 3A5 and 3A7 [12] and 4A11 (D. Kim and F. P. Guengerich, unpublished data). cDNAs for P450s 2C8 and 2C18 were obtained from Prof D. J. Birkett (Flinders University of South Australia) and Prof. Philippe Beaune (INSERM U490, Universite Rene Descartes, Paris V, France) respectively, and bicistronic constructs in pCW were made according to previously published methods. Membranes from cells transformed with the monocistronic expression vector for recombinant human reductase, pCW′/hNPR, were used as a negative control. Expression of P450s and preparation of bacterial membrane fractions was done according to established methods.
(§2) Incubations (0.2 mL) with recombinant enzyme preparations were performed as described above except that bacterial membrane preparations were used at 0.1 μM P450. For P450s 3A4 and 3A5, reductase concentrations were supplemented to two fold the P450 concentration by addition of membranes from cells expressing reductase alone. For P450s 2C9 and 2C19, reductase concentrations were supplemented to five fold the P450 concentration. Negative controls contained bacterial membranes derived from cells transformed with the empty expression vector alone (“pCW”) or cells expressing only reductase (“hNPR”). Negative controls contained membranes added at total protein (“pCW”) or reductase “hNPR”) concentrations at the upper limit of those present in incubations with recombinant P450 preparations.
(§3) A preliminary screen was performed to investigate metabolism of 3 by recombinant human P450s.

[2] = target: T2, P450 1B1 (Homo sapiens, UniProt Q16678); details: recombinant P450 1B1, preliminary screen
T2 construct: made in house; host or cells: Escherichia coli, bacterial membrane fraction, bicistronic vector
T2 sequence (Q16678 1-543): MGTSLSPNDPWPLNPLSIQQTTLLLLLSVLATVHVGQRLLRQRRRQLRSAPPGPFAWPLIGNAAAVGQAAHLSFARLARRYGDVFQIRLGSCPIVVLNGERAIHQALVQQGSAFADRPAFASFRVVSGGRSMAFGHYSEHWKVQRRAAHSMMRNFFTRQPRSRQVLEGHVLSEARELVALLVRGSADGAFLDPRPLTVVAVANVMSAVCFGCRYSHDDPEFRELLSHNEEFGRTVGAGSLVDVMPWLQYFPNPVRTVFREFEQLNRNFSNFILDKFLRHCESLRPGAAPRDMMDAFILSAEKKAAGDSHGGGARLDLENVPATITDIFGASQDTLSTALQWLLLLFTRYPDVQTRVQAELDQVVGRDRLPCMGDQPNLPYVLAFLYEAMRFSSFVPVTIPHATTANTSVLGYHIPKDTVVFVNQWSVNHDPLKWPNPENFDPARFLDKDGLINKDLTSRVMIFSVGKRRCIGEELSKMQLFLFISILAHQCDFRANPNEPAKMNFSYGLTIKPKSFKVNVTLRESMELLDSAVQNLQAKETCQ
Description: as §1, §2, §3

[3] = target: T3, P450 2C19 (Homo sapiens, UniProt P33261); details: recombinant P450 2C19, preliminary screen
T3 construct: made in house; host or cells: Escherichia coli, bacterial membrane fraction, bicistronic vector; reductase topped up to five fold the P450 concentration
Description: as §1, §2, §3

[4] = target: T4, P450 2C8 (Homo sapiens, UniProt P10632); details: recombinant P450 2C8, preliminary screen
T4 construct: made in house; host or cells: Escherichia coli, bacterial membrane fraction, bicistronic construct in pCW
T4 sequence (P10632 1-490): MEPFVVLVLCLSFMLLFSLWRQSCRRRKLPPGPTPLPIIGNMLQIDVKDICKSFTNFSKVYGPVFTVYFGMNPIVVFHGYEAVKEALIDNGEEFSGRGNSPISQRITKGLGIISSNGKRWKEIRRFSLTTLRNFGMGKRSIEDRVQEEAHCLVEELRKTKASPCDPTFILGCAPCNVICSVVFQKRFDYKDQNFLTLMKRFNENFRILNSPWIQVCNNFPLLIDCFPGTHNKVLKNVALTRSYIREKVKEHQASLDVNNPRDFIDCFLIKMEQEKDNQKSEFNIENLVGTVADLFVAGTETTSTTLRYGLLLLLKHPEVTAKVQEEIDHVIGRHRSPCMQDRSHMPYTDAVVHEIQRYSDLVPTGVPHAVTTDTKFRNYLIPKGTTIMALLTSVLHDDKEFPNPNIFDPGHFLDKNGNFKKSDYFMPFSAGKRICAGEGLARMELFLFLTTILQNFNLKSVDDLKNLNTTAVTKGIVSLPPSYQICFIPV
Description: as §1, §2, §3

[5] = target: T5, P450 2C9 (Homo sapiens, UniProt P11712); details: recombinant P450 2C9, preliminary screen
T5 construct: made in house; host or cells: Escherichia coli, bacterial membrane fraction, bicistronic vector; reductase topped up to five fold the P450 concentration
Description: as §1, §2, §3

[6] = target: T6, P450 2D6 (Homo sapiens, UniProt P10635); details: recombinant P450 2D6, preliminary screen
T6 construct: made in house; host or cells: Escherichia coli, bacterial membrane fraction, bicistronic vector
Description: as §1, §2, §3

[7] = test system: P450 3A4; details: recombinant P450 3A4, preliminary screen
Description: as §1, §2, §3

[8] = target: T7, P450 3A5 (Homo sapiens, UniProt P20815); details: recombinant P450 3A5, preliminary screen
T7 construct: made in house; host or cells: Escherichia coli, bacterial membrane fraction, bicistronic vector; reductase topped up to two fold the P450 concentration
Description: as §1, §2, §3

Measured: consumption of 3

T3 sequence (P33261 whole entry): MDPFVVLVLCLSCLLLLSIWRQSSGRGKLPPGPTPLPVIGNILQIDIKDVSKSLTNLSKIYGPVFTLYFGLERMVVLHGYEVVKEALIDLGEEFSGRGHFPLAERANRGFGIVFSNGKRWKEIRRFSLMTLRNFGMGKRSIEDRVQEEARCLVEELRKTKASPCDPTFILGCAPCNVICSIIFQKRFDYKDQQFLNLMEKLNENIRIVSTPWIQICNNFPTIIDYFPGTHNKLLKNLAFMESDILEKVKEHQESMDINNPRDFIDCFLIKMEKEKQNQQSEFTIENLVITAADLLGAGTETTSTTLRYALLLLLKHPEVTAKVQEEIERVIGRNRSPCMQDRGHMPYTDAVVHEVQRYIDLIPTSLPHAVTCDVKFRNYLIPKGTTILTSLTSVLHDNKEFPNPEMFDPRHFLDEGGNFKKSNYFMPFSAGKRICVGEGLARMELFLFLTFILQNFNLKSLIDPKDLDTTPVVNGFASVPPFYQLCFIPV
T7 sequence (P20815 whole entry): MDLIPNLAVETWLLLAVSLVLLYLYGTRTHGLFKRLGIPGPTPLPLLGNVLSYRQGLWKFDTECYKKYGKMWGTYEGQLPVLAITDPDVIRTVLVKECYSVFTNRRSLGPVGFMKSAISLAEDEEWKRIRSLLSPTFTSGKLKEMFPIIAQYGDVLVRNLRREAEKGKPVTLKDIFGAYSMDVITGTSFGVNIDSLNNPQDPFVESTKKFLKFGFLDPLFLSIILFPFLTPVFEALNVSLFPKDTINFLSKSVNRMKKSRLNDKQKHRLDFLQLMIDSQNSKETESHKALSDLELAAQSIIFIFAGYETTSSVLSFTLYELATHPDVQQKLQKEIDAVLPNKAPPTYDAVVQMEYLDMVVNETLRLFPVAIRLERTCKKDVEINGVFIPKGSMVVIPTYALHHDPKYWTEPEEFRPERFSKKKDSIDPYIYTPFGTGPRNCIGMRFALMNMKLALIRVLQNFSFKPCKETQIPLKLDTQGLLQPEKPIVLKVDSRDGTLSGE
T6 sequence (P10635 whole entry): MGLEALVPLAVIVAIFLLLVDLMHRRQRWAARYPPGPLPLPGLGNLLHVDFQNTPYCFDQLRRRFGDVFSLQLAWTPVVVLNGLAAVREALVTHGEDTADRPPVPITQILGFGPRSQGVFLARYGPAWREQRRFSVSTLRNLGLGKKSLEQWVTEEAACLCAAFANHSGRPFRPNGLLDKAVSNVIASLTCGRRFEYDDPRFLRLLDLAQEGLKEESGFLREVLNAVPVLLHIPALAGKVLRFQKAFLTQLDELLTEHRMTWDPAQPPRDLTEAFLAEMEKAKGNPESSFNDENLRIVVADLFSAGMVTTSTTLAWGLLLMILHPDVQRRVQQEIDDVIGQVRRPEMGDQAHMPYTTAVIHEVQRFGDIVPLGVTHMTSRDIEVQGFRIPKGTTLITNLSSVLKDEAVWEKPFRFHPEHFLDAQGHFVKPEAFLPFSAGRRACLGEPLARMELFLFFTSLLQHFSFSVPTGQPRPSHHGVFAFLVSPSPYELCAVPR
T5 sequence (P11712 whole entry): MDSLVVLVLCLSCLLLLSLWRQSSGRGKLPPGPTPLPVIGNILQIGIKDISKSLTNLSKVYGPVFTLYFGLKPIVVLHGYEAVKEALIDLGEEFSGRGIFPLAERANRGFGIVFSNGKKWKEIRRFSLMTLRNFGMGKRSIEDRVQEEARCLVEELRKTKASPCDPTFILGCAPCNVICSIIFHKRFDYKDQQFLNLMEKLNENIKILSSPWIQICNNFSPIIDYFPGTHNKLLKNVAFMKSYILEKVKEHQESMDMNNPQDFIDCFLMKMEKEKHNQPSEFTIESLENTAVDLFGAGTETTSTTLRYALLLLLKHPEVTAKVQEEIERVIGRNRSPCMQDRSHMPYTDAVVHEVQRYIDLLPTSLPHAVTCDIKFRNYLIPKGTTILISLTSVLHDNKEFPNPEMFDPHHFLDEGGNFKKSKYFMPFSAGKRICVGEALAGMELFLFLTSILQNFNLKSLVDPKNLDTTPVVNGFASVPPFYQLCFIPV

C/C=C\C=C/CC/C=C/C=C/C(=O)NCC(C)C [alkylamide 3, (2E,4E,8Z,10Z)—N-isobutyldodeca-2,4,8,10-tetraenamide]
observed: all assays above
